Reference: ChEMBL document CHEMBL5352385, “Marine natural products and their synthetic analogs as promising antibiofilm agents for antibiotics discovery and development” (Eur J Med Chem, 2022)
*1 amine or outer side, *2 acyl side, *3 side chain or, on linkers, in order; H or OH if unused. Where a SMILES comes first, the peptide text is derived from it. [ ]: non-standard residue; d: D form. The star is where a group is joined. ξ: configuration not given here. ξGly(tetradecyl) = CCCCCCCCCCCCCCC(N)C(=O)O; X1 = CCCCCCCCCCCCCC(N[*:1])C(=O)[*:2]; Palmitoyl = CCCCCCCCCCCCCCCC(=O)*; X2 = CCCCCCCCC(O)CC(=O)O*

What was measured:
Assay type in all cases: functional
Vibrio cholerae = experiment: Antibiofilm activity against Vibrio cholerae MTCC 3906 at 2 ug/ml incubated for 18 hrs by crystal violet staining based analysis relative to control; conditions: dose 2 µg/ml
Staphylococcus aureus [1] = experiment: Antibiofilm activity against Staphylococcus aureus MTCC 96 at 2 ug/ml incubated for 18 hrs by crystal violet staining based analysis relative to control; conditions: dose 2 µg/ml
Bacillus subtilis [2] = experiment: Antibiofilm activity against Bacillus subtilis MTCC 619 at 2 ug/ml incubated for 18 hrs by crystal violet staining based analysis relative to control; conditions: dose 2 µg/ml
Vibrio anguillarum = experiment: Antibiofilm activity against Vibrio anguillarum at 300 ug/ml relative to control; conditions: dose 300 µg/ml
Pseudomonas aeruginosa [3] = experiment: Antibiofilm activity against Pseudomonas aeruginosa at 300 ug/ml relative to control; conditions: dose 300 µg/ml
Bacillus subtilis [4] = experiment: Antibiofilm activity against Bacillus subtilis at 300 ug/ml relative to control; conditions: dose 300 µg/ml
Bacillus sp. = experiment: Antibiofilm activity against Bacillus sp. 176 at 300 ug/ml relative to control; conditions: dose 300 µg/ml
Escherichia coli [5] = experiment: Antibiofilm activity against Escherichia coli at 50.9 ug/ml relative to control; conditions: dose 50.9 µg/ml
Pseudomonas aeruginosa [6] = experiment: Antibiofilm activity against Pseudomonas aeruginosa PA01 assessed as inhibition of biofilm formation at 800 ug/ml relative to control; design: scale not given: the % may be the effect or the level left; conditions: dose 800 µg/ml
Serratia marcescens [7] = experiment: Antibiofilm activity against Serratia marcescens FJ584421 assessed as inhibition of biofilm formation at 300 ug/ml relative to control; design: scale not given: the % may be the effect or the level left; conditions: dose 300 µg/ml
Listeria monocytogenes = experiment: Antibiofilm activity against Listeria monocytogenes ATCC 19111 at 256 ug/ml relative to control; conditions: dose 256 µg/ml
Serratia marcescens [8] = experiment: Antibiofilm activity against Serratia marcescens at 30 ug/ml relative to control; conditions: dose 30 µg/ml
[9] = tested on: Staphylococcus epidermidis; experiment: Antibiofilm activity against Staphylococcus epidermidis RP62A at 256 ug/ml relative to control; conditions: dose 256 µg/ml
Escherichia coli [10] = experiment: Antibiofilm activity against Escherichia coli assessed as inhibition of biofilm formation
Pseudomonas aeruginosa [11] = experiment: Antibiofilm activity against Pseudomonas aeruginosa assessed as inhibition of biofilm formation at 100 to 200 ug/ml relative to control; design: scale not given: the % may be the effect or the level left; conditions: dose 100-200 µg/ml; at 100 to 200 µg/mL
Pseudomonas aeruginosa [12] = experiment: Antibiofilm activity against Pseudomonas aeruginosa assessed as inhibition of biofilm formation at 90 ug/ml incubated for 24 hrs by crystal violet staining based analysis relative to control; design: scale not given: the % may be the effect or the level left; conditions: dose 90 µg/ml
Candida albicans [13] = experiment: Antibiofilm activity against Candida albicans assessed as inhibition of biofilm formation at 400 ug/ml by microbroth dilution assay relative to control; design: scale not given: the % may be the effect or the level left; conditions: dose 400 µg/ml
Candida albicans [14] = experiment: Antibiofilm activity against Candida albicans assessed as reduction in biofilm formation at >200 ug/ml measured after 48 hrs by crystal violet staining based analysis relative to control; design: scale not given: the % may be the effect or the level left; conditions: dose > 200 µg/ml
Streptococcus mutans = experiment: Antibiofilm activity against Streptococcus mutans at 5 ug/ml relative to control; conditions: dose 5 µg/ml
Staphylococcus aureus [15] = experiment: Antibiofilm activity against Staphylococcus aureus ATCC 6538 at 12.5 ug/ml relative to control; conditions: dose 12.5 µg/ml
Pseudomonas aeruginosa [16] = experiment: Antibiofilm activity against Pseudomonas aeruginosa FSPA02 at 75 ug/ml by crystal violet staining based confocal microscopy analysis relative to control; conditions: dose 75 µg/ml
Candida albicans [17] = experiment: Antibiofilm activity against Candida albicans assessed as reduction in biofilm formation at 100 ug/ml measured after 48 hrs by crystal violet staining based analysis relative to control; design: scale not given: the % may be the effect or the level left; conditions: dose 100 µg/ml

CCCCCCCCCCCCCCCC(=O)NC(CO)C(=O)NC(CC(=O)O)C(=O)NC(C(=O)NC(CO)C(=O)NC(CO)C(=O)O)C(C)C (configuration not stated) (Palmitoyl-SDVSS-OH; configuration not given here)
Activity (Vibrio cholerae): 99%
Activity (Staphylococcus aureus [1]): 99%
Activity (Bacillus subtilis [2]): 99%

CCCCCCCCCCCCCC1NC(=O)C(C(C)CC)NC(=O)C(CC(C)C)NC(=O)C(CC(=O)OC)NC(=O)C(CC(C)C)NC(=O)C(CC(C)C)NC(=O)C(CC(C)C)NC(=O)C(CCC(=O)OC)NC1=O (configuration not stated) (cyclo([X1]E(OMe)LLLD(OMe)LI); configuration not given here)
Activity (Vibrio anguillarum): >50%
Activity (Pseudomonas aeruginosa [3]): >50%
Activity (Bacillus subtilis [4]): >50%
Activity (Bacillus sp.): >50%

NC1=N[C@]23CCCN2C(=O)c2[nH]c(Br)c(Br)c2[C@@H]3N1
Activity (Escherichia coli [5]): 50%

NCCc1ccc(O)cc1 [TYRAMINE]
Activity (Pseudomonas aeruginosa [6]): 28%

OCCc1ccc(O)cc1 [TYROSOL]
Activity (Serratia marcescens [7]): 85.7%

CC(C)C[C@@H]1NC(=O)[C@@H]2CCCN2C1=O
Activity (Listeria monocytogenes): 86.9%
Activity (Serratia marcescens [8]): 53.5%
Activity [9]: 82%

CCCCCCCCCCCCCCC1NC(=O)C(C(C)CC)NC(=O)C(CC(C)C)NC(=O)C(CC(=O)OC)NC(=O)C(CC(C)C)NC(=O)C(CC(C)C)NC(=O)C(CC(C)C)NC(=O)C(CCC(=O)OC)NC1=O (configuration not stated) (cyclo([ξGly(tetradecyl)]E(OMe)LLLD(OMe)LI); configuration not given here)
Activity (Vibrio anguillarum): >50%
Activity (Pseudomonas aeruginosa [3]): >50%
Activity (Bacillus subtilis [4]): >50%
Activity (Bacillus sp.): >50%

CCCCCCCCC1C=CC(=O)O1 (configuration not stated)
MBIC (Escherichia coli [10]): 50 µg/mL
Activity (Pseudomonas aeruginosa [11]): 100%

CC(C)CC(=O)NCCc1ccccc1
Activity (Pseudomonas aeruginosa [12]): >40%

O=Cc1ccc(CO)o1 [AES-103]
Activity (Candida albicans [13]): 86%

C/C=C/CCCC(C)/C(O)=C1\C(=O)[C@H](C(C)O)N(C)C1=O (some centres not stated)
Activity (Candida albicans [14]): 80%

Cc1cc(O)c2c(c1)C(=O)c1cc(O)cc(O)c1C2=O [EMODIN]
Activity (Streptococcus mutans): 90%
Activity (Staphylococcus aureus [15]): >50%

CCCCCCCCC(O)CC(=O)OC(=O)C(Cc1ccccc1)NC(=O)C(CC(C)C)NC(=O)C(CC(C)C)NC(=O)C(NC(=O)C(CC(=O)O)NC(=O)C(CC(C)C)NC(=O)C(N)CC(C)C)C(C)C (configuration not stated) (H-LLDVLLF-X2; configuration not given here)
Activity (Pseudomonas aeruginosa [16]): 90%

CC(=O)NCCc1ccc(O)cc1
Activity (Pseudomonas aeruginosa [6]): 28%

C/C=C1\C(=O)/C(=C(/O)C(C)CCCCCC)C(=O)N1C (configuration not stated) [PENICILLENOL B2]
Activity (Candida albicans [17]): 80%
